From US9102667B2, “N-arylaminomethylene benzothiophenones for treatment of cardiovascular disease” (FORSCHUNGSVERBUND BERLIN E.V., priority 2011, dated 2015) come the findings set out here.

Some results are limits rather than exact numbers.

AKAP-PKA interaction, sequence (P13861 2-404 limits assumed): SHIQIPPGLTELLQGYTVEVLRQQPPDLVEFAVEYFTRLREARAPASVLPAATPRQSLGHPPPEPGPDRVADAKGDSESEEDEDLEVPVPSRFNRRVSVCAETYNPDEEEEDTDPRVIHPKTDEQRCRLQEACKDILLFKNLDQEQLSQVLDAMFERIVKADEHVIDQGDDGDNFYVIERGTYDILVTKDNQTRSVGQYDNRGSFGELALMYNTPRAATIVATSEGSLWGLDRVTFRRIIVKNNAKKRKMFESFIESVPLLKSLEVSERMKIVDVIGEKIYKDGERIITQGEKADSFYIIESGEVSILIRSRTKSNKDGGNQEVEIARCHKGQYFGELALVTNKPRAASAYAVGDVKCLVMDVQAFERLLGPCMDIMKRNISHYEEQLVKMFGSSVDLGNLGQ

The first assay concerns the target AKAP-PKA interaction (Homo sapiens, UniProt P13861). The assay is described as follows: AKAP-PKA interaction (disruption) assays of Examples 1-3: alpha screen, surface plasmon resonance, ELISA (combined classification). The assay is classed as binding. Particulars: absolute values stated in structure-activity text; method not specified; read-out: IC50. Here is the method:
The inhibition of the interaction of the alpha RII subunit of protein kinase A with AKAP18-alpha by the compounds according to the invention is determined as follows:
The experiment measures the suitability of candidate compounds for the inhibition of the interaction between AKAP and PKA. An AKAP-GST fusion construct is immobilized on glutathione donor beads and His-RII-alpha on Ni-chelate acceptor beads. To the extent that the partners interact, singlet oxygen from the donor beads becomes free and activates the fluorescence emission of the acceptor beads. The fluorescence emission determined in the microplate reader is proportional to the intensity of interaction of the protein partners. The IC50 is determined from the results of the measurement of several concentrations of one candidate compound.
The details of the process were as follows: Two protein Solutions A and B are produced in a buffer (phosphate NaCl buffer, 0.1% polysorbate 80, 0.1% [=1 mg/ml BSA]). These contain (A) the histidine-6-tagged fusion construct RII-alpha-His (3.125 nmol/l) and (B) the glutathione-S-transferase-tagged fusion construct GST-AKAP18-alpha-d2-10 (6.25 nmol/l). One volume unit each of protein solution and bead suspension are incorporated, specifically Solution A of the His6-tagged protein with Ni-chelate bead suspension and Solution B of the GST-fusion protein with glutathione beads (Perkin Elmer Product No. 6765302), and in doing so the concentrations are selected according to the manufacturers information. The Mixtures A and B obtained are incubated for one hour at room temperature (RT) in the dark.
Then, 5 μl of Mixture A is laid out for each hole on a 384-hole microtiter plate, and then to start with 0.5 μl of a solution of the candidate compound in DMSO is added and then 5 μl of Mixture B. The resulting reaction mixture is incubated 1 h at RT in the dark. Then, the reaction is tempered to 28.5° C., and the emitter intensity of the acceptor is determined in a microtiter plate reader after excitation of the donor at 680 nm.
The relative inhibition of the AKAP-PKA interaction is calculated following the formula: 1−(xc−y)/(z−y) where: X=average of readings (n=3) at concentration c; Y=average of measurement data from bead-bead check (n=6); Z=average of measurement data from protein-protein check (n=6). Results:
Surface plasmon resonance analyses for competition in solution were performed with streptavidin-coated sensor chips (GE Healthcare, Uppsala, Sweden). The N-terminal biotinylated peptide AKAP18d-L314E was used, which is a variant of the RH-binding domains of AKAP18δ (Hundsrucker et al., Biochem. J. 396, 297-306, [2006]). The binding of the regulatory subunit of the human PKAII-α or RII-β onto the peptide surface of the AKAP18δ-L314E, or the inhibition of this binding to RII by the compounds of the invention, was measured on a Biacaore 3000 machine (Biacore/GE Healthcare) as previously described (Henn et al., J Biol Chem 279, 26654-26665 [2004]). The compounds were injected for 60 sec at a flow rate of 30 μl/min, and the dissociation phase was measured for 180 sec.
Multititer plates (Corning B.V. Life Sciences, Schiphol-Rijk, Netherlands) were coated with recombinantly produced PKA RIIα (15 ng/hole) by incubation with phosphate buffer containing protease inhibitors (1 h, 22° C.). The plate was then blocked with lactoprotein.
GST-AKA7δ (Hundsrucker et al., Biochem. J. 396, 297-306, [2006]; 15 ng/well) was incubated with and without candidate compounds on the plate for 1 h at 22° C. After washing, it was incubated with antibodies (rabbit) against AKA7δ (A18δ3) and then with a peroxidase-conjugated antirabbit antibody and developed with dye substrate (LumiLight Western Blotting Substrate, Roche Diagnostics, Mannheim, Germany). Luminescence activity was determined in a microplate reader (GeniosPro, Tecan, Durham, N.C., United States) at 10 msec integration.
For orientation: In SPR one partner is held on a chip, and binding of the other changes the refractive index at the surface.
For orientation: IC50 means the midpoint of a concentration-inhibition curve. With `O=C1/C(=C/Nc2ncc[nH]2)Sc2ccccc21` [T2/1, (2Z)-2-[(1H-imidazole-2-ylamino)methylene]benzothiophene-3-one], the IC50 was approximately 80 µM.

With `O=C1/C(=C/Nc2nccs2)Sc2ccccc21` [T2/6, (2Z)-2-[(thiazole-2-ylamino)methylene]benzothiophene-3-one], the IC50 was approximately 80 µM.

For `O=C1/C(=C/Nc2ncc([N+](=O)[O-])s2)Sc2ccccc21` [T2/12, (2Z)-2-[[(5-nitrothiazole-2-yl)amino]methylene]benzothiophene-3-one], the IC50 was 1 to 5 µM.

The same assay, now with this note: alkyl substituent on heteroaromatic pentacycle.
`Cc1csc(N/C=C2\Sc3ccccc3C2=O)n1` [T2/10, (2Z)-2-[[(4-methylthiazole-2-yl)amino]methylene]benzothiophene-3-one]: the “IC50 relative to that of the unsubstituted mother compound” value is “about 50%”.

The same assay, now with this note: assays of Examples 1-3.
Consider `O=C1/C(=C\Nc2cccc3ccccc23)Sc2ccccc21` [T2/39, (2e)-2-[(1-naphthylamino)methylene]benzothiophene-3-one], for which the “Activity in AKAP-PKA interaction assays (in words)” value is on record as “barely detectable activity”.

The assay is the same for the next values; noted with them: class from IC50 values in assays of Examples 1, 2 or 3.
Regarding `COC(=O)c1cnc(N/C=C2\Sc3ccccc3C2=O)s1` [T2/17, 2-[[(z)-(3-oxobenzothiophene-2-ylidene)methyl]amino]thiazole-5-carboxylic acid methylester], the “Activity (IC50 class)” value was 2-[[(z)-(3-oxobenzothiophene-2-ylidene)methyl]amino]thiazole-5-carboxylic acid methylester Activity: A(A).

In the case of `N=C(N)c1cnc(N/C=C2\Sc3ccccc3C2=O)s1` [T2/21, 2-[[(Z)-(3-oxobenzothiophen-2-ylidene)methyl]amino]thiazole-5-carboxamidine], the “Activity (IC50 class)” value is 2-[[(Z)-(3-oxobenzothiophen-2-ylidene)methyl]amino]thiazole-5-carboxamidine Activity: A/B.

With `O=C1/C(=C/Nc2nc3ccccc3s2)Sc2ccccc21` [T2/23, (2Z)-2-[(1,3-benzothiazol-2-ylamino)methylene]-benzothiophen-3-one], the “Activity (IC50 class)” value is “(2Z)-2-[(1,3-benzothiazol-2-ylamino)methylene]- benzothiophen-3-one Activity A/B”.

The same assay, now with this note: class from IC50 values in assays of Examples 1, 2 or 3; read-out: Activity (IC50 class).
On to `O=C1/C(=C/Nc2ncc[nH]2)Sc2ccccc21` [T2/1, (2Z)-2-[(1H-imidazole-2-ylamino)methylene]benzothiophene-3-one], for which the IC50 was less than 150 µM.

As for `O=C1/C(=C/Nc2nc3ccccc3[nH]2)Sc2ccccc21` [T2/2, (2Z)-2-[(1H-benzimidazole-2-ylamino)methylene]benzothiophene-3-one], the IC50 was less than 150 µM.

As for `Cn1c(N/C=C2\Sc3ccccc3C2=O)nc2ccccc21` [T2/3, (2Z)-2-[[(1-methylbenzimidazole-2-yl)amino]methylene]benzothiophene-3-one], the IC50 is less than 150 µM.

Take `Cc1coc(N/C=C2\Sc3ccccc3C2=O)n1` [T2/4, (2Z)-2-[[(4-methyloxazole-2-yl)amino]methylene]benzothiophene-3-one]: the IC50 is less than 50 µM.

For the molecule `O=C1/C(=C/Nc2nc3cc(Cl)ccc3o2)Sc2ccccc21` [T2/5, (2Z)-2-[[(5-chloro-1,3-benzoxazole-2-yl)amino]methylene]benzothiophene-3-one], the IC50 was in the range of 250 to 750 µM.

Consider `O=C1/C(=C/Nc2nccs2)Sc2ccccc21` [T2/6, (2Z)-2-[(thiazole-2-ylamino)methylene]benzothiophene-3-one], for which the IC50 was less than 150 µM.

Turning to `O=C1/C(=C/Nc2ncc([N+](=O)[O-])s2)Sc2ccccc21` [T2/12, (2Z)-2-[[(5-nitrothiazole-2-yl)amino]methylene]benzothiophene-3-one], the IC50 is less than 25 µM.

As to `O=C1/C(=C/Nc2ncc(Br)s2)Sc2ccccc21` [T2/13, (2Z)-2-[[(5-bromothiazole-2-yl)amino]methylene]benzothiophene-3-one], the half-inhibitory concentration (IC50) was less than 50 µM.

For the molecule `O=C1/C(=C/Nc2ncc(Cl)s2)Sc2ccccc21` [T2/14, (2Z)-2-[[(5-chlorothiazole-2-yl)amino]methylene]benzothiophene-3-one], the IC50 was less than 150 µM.

With `O=C(O)c1cnc(N/C=C2\Sc3ccccc3C2=O)s1` [T2/16, 2-[[(z)-(3-oxobenzothiophene-2-ylidene)methyl]amino]thiazole-5-carboxylic acid], the IC50 was less than 250 µM.

As to `COC(=O)c1csc(N/C=C2\Sc3ccccc3C2=O)n1` [T2/18, 2-[[(z)-(3-oxobenzothiophene-2-ylidene)methyl]amino]thiazole-4-carboxylic acid methylester], the IC50 is less than 150 µM.

With `NC(=O)c1cnc(N/C=C2\Sc3ccccc3C2=O)s1` [T2/19, 2-[[(z)-(3-oxobenzothiophene-2-ylidene)methyl]amino]thiazole-5-carboxylic acid amide], the IC50 is less than 150 µM.

Take `CNC(=O)c1cnc(N/C=C2\Sc3ccccc3C2=O)s1` [T2/20, n-methyl-2-[[(z)-(3-oxobenzothiophene-2-ylidene)methyl]amino]thiazole-5-carboxylic acid amide]: the IC50 was less than 250 µM.

`COc1ccc2nc(N/C=C3\Sc4ccccc4C3=O)sc2c1` [T2/24, (2Z)-2-[[(6-methoxy-1,3-benzothiazole-2-yl)amino]methylene]benzothiophene-3-one]: the IC50 is less than 150 µM.

Take `O=C1/C(=C/Nc2nc3ccc([N+](=O)[O-])cc3s2)Sc2ccccc21` [T2/25, (2Z)-2-[[(6-nitro-1,3-benzothiazole-2-yl)amino]methylene]benzothiophene-3-one]: the IC50 is less than 250 µM.

For the molecule `O=C1/C(=C/Nc2nc3c(F)cc(F)cc3s2)Sc2ccccc21` [T2/26, (2Z)-2-[[(4,6-difluoro-1,3-benzothiazole-2-yl)amino]methylene]benzothiophene-3-one], the IC50 fell in the range of 250 to 750 µM.

As to `O=C1/C(=C/Nc2nc3ccc(C(F)(F)F)cc3s2)Sc2ccccc21` [T2/27, (2Z)-2-[[[6-(trifluoromethyl)-1,3-benzothiazole-2-yl]amino]methylene]benzothiophene-3-one], the IC50 lay within 250 to 750 µM.

Take `O=C1/C(=C/Nc2nc3ccc(Br)cc3s2)Sc2ccccc21` [T2/28, (2Z)-2-[[(6-bromo-1,3-benzothiazole-2-yl)amino]methylene]benzothiophene-3-one]: the IC50 was less than 150 µM.

`O=C1/C(=C/Nc2ccc3scnc3c2)Sc2ccccc21` [T2/29, (2Z)-2-[(1,3-benzothiazole-5-ylamino)methylene]benzothiophene-3-one]: the IC50 fell in the range of 250 to 750 µM.

On to `O=C1/C(=C/Nc2ncns2)Sc2ccccc21` [T2/30, (2Z)-2-[(1,2,4-thiadiazol-5-ylamino)methylene]benzothiophene-3-one], for which the IC50 is less than 150 µM.

On to `O=C1/C(=C/Nc2nncs2)Sc2ccccc21` [T2/31, (2Z)-2-[(1,3,4-thiadiazol-2-ylamino)methylene]benzothiophene-3-one], for which the IC50 was less than 150 µM.

`O=C1/C(=C/Nc2nnc(Br)s2)Sc2ccccc21` [T2/32, (2Z)-2-[[(5-bromo-1,3,4-thiadiazol-2-yl)amino]methylene]benzothiophene-3-one]: the IC50 was less than 150 µM.

As to `O=C1/C(=C/Nc2ccccc2[N+](=O)[O-])Sc2ccccc21` [T2/33, (2Z)-2-[(2-nitroanilino)methylene]benzothiophene-3-one], the IC50 is less than 150 µM.

For `O=C1/C(=C\Nc2ccc([N+](=O)[O-])cc2)Sc2ccccc21` [T2/34, (2e)-2-[(4-nitroanilino)methylene]benzothiophene-3-one], the IC50 was 250 to 750 µM.

With `O=C1/C(=C/Nc2cc([N+](=O)[O-])ccc2O)Sc2ccccc21` [T2/35, (2Z)-2-[(2-hydroxy-5-nitro-anilino)methylene]benzothiophene-3-one], the IC50 is 250 to 750 µM.

Take `O=C1/C(=C/Nc2cccc(Br)c2)Sc2ccccc21` [T2/37, (2Z)-2-[(3-bromoanilino)methylene]benzothiophene-3-one]: the IC50 was in the range of 250 to 750 µM.

Take `O=C1/C(=C\Nc2cccc3ccccc23)Sc2ccccc21` [T2/39, (2e)-2-[(1-naphthylamino)methylene]benzothiophene-3-one]: the IC50 fell in the range of 250 to 750 µM.

`O=C1/C(=C/Nc2ncc3ccccc3n2)Sc2ccccc21` [T2/42, (2Z)-2-[(chinazolin-2-ylamino)methylene]benzothiophene-3-one]: the IC50 was 250 to 750 µM.

For `O=C1/C(=C/Nc2ncccn2)Sc2ccccc21` [T2/49, (2Z)-2-[(pyrimidine-2-ylamino)methylene]benzothiophene-3-one], the IC50 was less than 250 µM.
